This data set in a line: Solubility experiments and 1H-NMR spectra: complexing with cyclodextrins. The class given is physicochemical. The following applies: hydrochloride of BIII 890; γ-cyclodextrin, HPγCD, HPβCD and SBEβCD.

For the molecule `C[C@@H](CN1CC[C@@]2(C)c3cccc(O)c3C[C@@H]1C2(C)C)OCc1ccccc1` [BIII 890, (−)-(1R,2″S)-2-(2″-benzyloxy)propyl-4′-hydroxy-5,9,9-trimethyl-6,7-benzomorphan], the “complexing of the active substance by cyclodextrins” value was “complex”.

The record behind these values is patent US20040019013A1, “Formulation for the parenteral application of a sodium channel blocker” (Boehringer Ingelheim Pharma GmbH & Co. KG, Ingelheim, …, priority 2002, published 2004).
